Source: PubChem BioAssay AID330 (DTP/NCI, 2004)
Values joined by “and” are separate entries in the source; they are usually repeats but may differ in a detail not shown here. Equal values may be shown once. Inconclusive results and toxic doses are left out. Numbered stars: 1 amine (or outer) side, 2 acyl side, 3 side chain; on linkers, the order of the positions; unused ones are H or OH. Bridge positions count the residues as written; N and C are the ends. Square brackets hold non-standard residues; d marks the D form. Peptide text beside a SMILES is read from it. I, II: the chains in the order shown. Actinocin(9to1) = Cc1c2oc3c(C)ccc(C(=O)[*:1])c3nc-2c(C(=O)[*:2])c(N)c1=O; aThr = C[C@H](O)[C@H](N)C(=O)O; NMeV = CN[C@H](C(=O)O)C(C)C; Sar = CNCC(=O)O

Tested on: P388 leukemia ip, CD2F1 mice, survival T/C
Experiment: NCI In Vivo Anticancer Drug Screen. Data for tumor model P388 Leukemia (intraperitoneal) in CD2F1 (CDF1) mice
Conditions: endpoint: median survival time, higher = longer survival
Outline: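 Mice carrying the transplanted tumor received test compound or vehicle. Survival was recorded in each group, and the value is the treated-group measurement divided by that of the vehicle-treated control group.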

## Cc1c2oc3c(C)ccc(C(=O)N[C@@H]4C(=O)N[C@H](C(C)C)C(=O)N5CCC[C@H]5C(=O)N(C)CC(=O)N(C)[C@@H](C(C)C)C(=O)O[C@H]4C)c3nc-2c(C(=O)N[C@@H]2C(=O)N[C@H](C(C)C)C(=O)N3CCC[C@H]3C(=O)N(C)CC(=O)N(C)[C@@H](C(C)C)C(=O)O[C@H]2C)c(N)c1=O (I: [aThr][dV]P[Sar][NMeV] / II: [aThr][dV]P[Sar][NMeV]; ester I:1-I:C, II:1-II:C; linker I:N-II:N via Actinocin(9to1))
dose: 0.05 mg/kg/injection, schedule: Q01DX005 (ip), vehicle: saline + alcohol
  T/C: 236 % of control
dose: 0.08 mg/kg/injection, schedule: Q04DX003 (ip), vehicle: saline + alcohol
  T/C: 165 % of control
dose: 0.09 mg/kg/injection, schedule: Q01DX009 (ip), vehicle: water
  T/C: 79 % of control
dose: 0.1 mg/kg/injection, schedule: Q01DX001 (ip), vehicle: water
  T/C: 181 % of control
dose: 0.11 mg/kg/injection, schedule: Q04DX003 (ip), vehicle: saline + alcohol
  T/C: 151 % of control
dose: 0.13 mg/kg/injection, schedule: Q04DX002 (ip), vehicle: saline + alcohol
  T/C: 156 % of control and 180 % of control and 198 % of control
dose: 0.13 mg/kg/injection, schedule: Q04DX003 (ip), vehicle: saline + alcohol
  T/C: 223 % of control
dose: 0.15 mg/kg/injection, schedule: Q04DX003 (ip), vehicle: saline
  T/C: 169 % of control
dose: 0.16 mg/kg/injection, schedule: Q01DX009 (ip), vehicle: water
  T/C: 65 % of control
dose: 0.18 mg/kg/injection, schedule: Q04DX003 (ip), vehicle: saline + alcohol
  T/C: 163 % of control
dose: 0.21 mg/kg/injection, schedule: Q04DX002 (ip), vehicle: saline + alcohol
  T/C: 186 % of control
dose: 0.22 mg/kg/injection, schedule: Q04DX002 (ip), vehicle: saline + alcohol
  T/C: 162 % of control and 215 % of control
dose: 0.22 mg/kg/injection, schedule: Q04DX003 (ip), vehicle: saline + alcohol
  T/C: 247 % of control
dose: 0.3 mg/kg/injection, schedule: Q01DX001 (ip), vehicle: saline
  T/C: 153 % of control
dose: 0.3 mg/kg/injection, schedule: Q04DX003 (ip), vehicle: saline + alcohol
  T/C: 182 % of control
dose: 0.3 mg/kg/injection, schedule: Q04DX003 (ip), vehicle: saline
  T/C: 175 % of control
dose: 0.36 mg/kg/injection, schedule: Q04DX002 (ip), vehicle: saline + alcohol
  T/C: 118 % of control and 176 % of control and 212 % of control
dose: 0.36 mg/kg/injection, schedule: Q04DX003 (ip), vehicle: saline + alcohol
  T/C: 99 % of control
dose: 0.45 mg/kg/injection, schedule: Q01DX001 (ip), vehicle: saline
  T/C: 164 % of control
dose: 0.5 mg/kg/injection, schedule: Q04DX003 (ip), vehicle: saline + alcohol
  T/C: 220 % of control
dose: 0.6 mg/kg/injection, schedule: Q01DX001 (ip), vehicle: saline
  T/C: 169 % of control
dose: 0.6 mg/kg/injection, schedule: Q04DX002 (ip), vehicle: saline + alcohol
  T/C: 101 % of control and 207 % of control and 254 % of control
dose: 0.6 mg/kg/injection, schedule: Q04DX003 (ip), vehicle: saline
  T/C: 86 % of control
dose: 0.8 mg/kg/injection, schedule: Q01DX001 (ip), vehicle: water
  T/C: 183 % of control
dose: 1.0 mg/kg/injection, schedule: Q04DX002 (ip), vehicle: saline + alcohol
  T/C: 260 % of control and 274 % of control
dose: 1.2 mg/kg/injection, schedule: Q01DX001 (ip), vehicle: water
  T/C: 55 % of control
dose: 3.0 micrograms/kg/injection, schedule: Q01DX009 (ip), vehicle: water
  T/C: 150 % of control and 160 % of control and 175 % of control
dose: 6.0 micrograms/kg/injection, schedule: Q01DX009 (ip), vehicle: water
  T/C: 164 % of control and 170 % of control and 188 % of control
dose: 6.25 micrograms/kg/injection, schedule: Q01DX005 (ip), vehicle: saline + alcohol
  T/C: 207 % of control
dose: 6.25 micrograms/kg/injection, schedule: Q01DX009 (ip), vehicle: saline
  T/C: 150 % of control
dose: 6.5 micrograms/kg/injection, schedule: Q01DX009 (ip), vehicle: saline + alcohol
  T/C: 155 % of control
dose: 10.8 micrograms/kg/injection, schedule: Q01DX009 (ip), vehicle: saline + alcohol
  T/C: 160 % of control
dose: 12.5 micrograms/kg/injection, schedule: Q01DX005 (ip), vehicle: saline + alcohol
  T/C: 207 % of control
dose: 18.0 micrograms/kg/injection, schedule: Q01DX009 (ip), vehicle: saline + alcohol
  T/C: 163 % of control
dose: 25.0 micrograms/kg/injection, schedule: Q01DX005 (ip), vehicle: saline + alcohol
  T/C: 245 % of control
dose: 30.0 micrograms/kg/injection, schedule: Q01DX009 (ip), vehicle: saline + alcohol
  T/C: 184 % of control
dose: 50.0 micrograms/kg/injection, schedule: Q01DX005 (ip), vehicle: saline + alcohol
  T/C: 176 % of control and 267 % of control
dose: 64.8 micrograms/kg/injection, schedule: Q04DX003 (ip), vehicle: saline + alcohol
  T/C: 156 % of control
dose: 77.8 micrograms/kg/injection, schedule: Q04DX003 (ip), vehicle: saline + alcohol
  T/C: 174 % of control
dose: 83.3 micrograms/kg/injection, schedule: Q01DX009 (ip), vehicle: saline + alcohol
  T/C: 98 % of control
dose: 100.0 micrograms/kg/injection, schedule: Q01DX005 (ip), vehicle: saline + alcohol
  T/C: 178 % of control
dose: 130.0 micrograms/kg/injection, schedule: Q04DX003 (ip), vehicle: saline + alcohol
  T/C: 175 % of control
dose: 139.0 micrograms/kg/injection, schedule: Q01DX009 (ip), vehicle: saline + alcohol
  T/C: 96 % of control
dose: 180.0 micrograms/kg/injection, schedule: Q04DX003 (ip), vehicle: saline + alcohol
  T/C: 190 % of control
dose: 216.0 micrograms/kg/injection, schedule: Q04DX003 (ip), vehicle: saline + alcohol
  T/C: 192 % of control
dose: 300.0 micrograms/kg/injection, schedule: Q04DX003 (ip), vehicle: saline + alcohol
  T/C: 162 % of control and 175 % of control
dose: 360.0 micrograms/kg/injection, schedule: Q04DX003 (ip), vehicle: saline + alcohol
  T/C: 197 % of control
dose: 500.0 micrograms/kg/injection, schedule: Q04DX003 (ip), vehicle: saline + alcohol
  T/C: 113 % of control and 219 % of control
dose: 600.0 micrograms/kg/injection, schedule: Q04DX003 (ip), vehicle: saline + alcohol
  T/C: 101 % of control
